pEC50: −log10 of the molar value.
Tests used:
[1] = system: ACKR3; experiment: ACKR3 | EC50 (nM)
Excerpt: Table printed on a drawing sheet, FIG. 3 (continued) F
Head of the field: ACKR3 | EC50 (nM)
Footnotes: *NH2-substituted at C-terminus
The patent's description of the figure: FIG. 3. Structure-activity relationship analysis of adrenorphin variants on ACKR3 and classical opioid receptors. (A) Comparison of the impact of substitutions, truncations, extensions, D-amino acid replacement or dimerization on the agonist activity of adrenorphin towards ACKR3, MOR, DOR, KOR and NOP. The agonist activity or each variant was evaluated in β-arrestin-1 recruitment assay in U87 cells and expressed as fold change over the activity of wild-type adrenorphin. (B-E) Comparison of potency and efficacy of adrenorphin (B) and its variants bearing mutations Y1F (C), M5L (D) and R6A (E) to induce β-arrestin-1 recruitment to ACKR3 and the opioid receptors KOR, MOR, DOR and NOP in U87 cells. “˜” indicates a similar impact of the modification on the potency of the peptide towards ACKR3 and the indicated opioid receptor. Results represent the mean±S.E.M. (n ? 3) (F) Comparison of the potencies of peptide variants combining mutations Y1F with other modifications (mutations and/or extension) to induce β-arrestin-1 recruitment to ACKR3. Modified amino acids with respect to the mother peptide (Y1F adrenorphin […]) are underlined and in bold.
First copying reader's note: Bold underlined residues in the sequences mark modifications relative to the mother peptide; the pEC50 cells include the SEM after ±.
Where the first naming reader finds the target: head: ACKR3

[2] = target: T1, ACKR3 (Homo sapiens, UniProt P25106); assay type: cell-based; set-up: expressed in transfected cells; host or cells: U87 cells, transient co-transfection of pNBe vectors
Target sequence in this assay (P25106 whole entry): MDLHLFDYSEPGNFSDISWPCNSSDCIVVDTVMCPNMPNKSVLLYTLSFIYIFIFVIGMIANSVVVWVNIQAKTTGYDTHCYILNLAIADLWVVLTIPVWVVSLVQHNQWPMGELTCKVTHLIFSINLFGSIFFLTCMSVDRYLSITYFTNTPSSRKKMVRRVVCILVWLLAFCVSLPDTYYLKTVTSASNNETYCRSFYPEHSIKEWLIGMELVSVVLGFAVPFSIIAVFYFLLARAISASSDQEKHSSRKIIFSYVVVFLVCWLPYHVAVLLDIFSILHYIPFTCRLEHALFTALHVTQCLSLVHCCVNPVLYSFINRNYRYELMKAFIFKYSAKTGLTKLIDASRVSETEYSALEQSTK
Target sequence in this assay (P49407 whole entry partner): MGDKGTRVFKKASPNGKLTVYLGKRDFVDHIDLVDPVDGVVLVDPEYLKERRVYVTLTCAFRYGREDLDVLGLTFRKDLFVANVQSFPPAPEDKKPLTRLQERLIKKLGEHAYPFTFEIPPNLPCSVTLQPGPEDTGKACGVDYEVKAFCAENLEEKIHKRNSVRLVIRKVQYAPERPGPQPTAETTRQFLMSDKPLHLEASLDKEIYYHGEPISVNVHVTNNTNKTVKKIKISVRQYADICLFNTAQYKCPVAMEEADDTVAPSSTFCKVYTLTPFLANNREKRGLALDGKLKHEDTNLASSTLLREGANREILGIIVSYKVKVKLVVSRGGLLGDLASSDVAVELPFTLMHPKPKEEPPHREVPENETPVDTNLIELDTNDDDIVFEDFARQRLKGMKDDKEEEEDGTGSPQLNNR

[3] = target: T1, ACKR3; experiment: ACKR3-mediated depletion of extracellular dynorphin A monitored by its ability to activate KOR (U87-ACKR3 cells); assay type: cell-based; set-up: expressed in transfected cells; for the receptor comparison in the uptake assay, transient pcDNA3.1)
Protocol: In brief, 1.2×10^6 U87 cells were plated in 10 cm-culture dishes and 48 hours later co-transfected with pNBe vectors encoding GPCRs C-terminally tagged to SmBiT and human β-arrestin-1 or -2 or mini G proteins (mG, engineered GTPase domains of Gα subunits,) N-terminally fused to LgBiT. 48 hours post-transfection cells were harvested, incubated 25 minutes at 37° C. with Nano-Glo Live Cell substrate diluted 200-fold and distributed into white 96-well plates (5×10^4 cells per well). Ligand-induced, β-arrestin and mG recruitment to GPCRs was evaluated with a Mithras LB940 luminometer (Berthold Technologies) for 20 minutes. For concentration-response curves, the signal recorded with a saturating concentration of full agonist for each receptor was set as 100%.
Target sequence in this assay (P25106 whole entry): as the sequence (P25106 whole entry) above

[4] = system: rat locus coeruleus neurons; assay type: cell-based
Protocol: 1.9. Ex Vivo Rat Neuron Depolarization
Adult male Wistar rats (6 to 8-week old) were housed at room temperature in groups of three or four with a 12:12 hour light-dark cycle. All animals had access to ad libitum food and water. All procedures were carried out in accordance with guidelines of the European Communities Council Directive of 24 Nov. 1986 (86609EE) and were accepted by the Ethics Committee for Animal Use of the University of Liège (protocol 2061). All efforts were made to minimize animal suffering.
1.9.2. Brain Explant Preparation and Recording Procedures
Rats were anaesthetized with chloral hydrate (400 mg/kg, i.p.) and placed under a cap with oxygenated air (95% O2, 5% CO2) two minutes prior to decapitation. After decapitation, the brain was rapidly removed and placed in ice cold (˜2° C.) oxygenated artificial cerebrospinal fluid (aCSF) of the following composition: NaCl 130 mM, KCl 3.5 mM, NaH2PO4 1.25 mM, NaHCO3 24 mM, Glucose 10 mM, CaCl2 2 mM, MgSO4 1.25 mM. A block of tissue containing the pons was placed in a vibrating blade microtome (Vibratome 1000 Plus, Sectioning System) and a slice containing the locus coeruleus (LC) immediately rostral to the fourth ventricle and the VIIth nerve, used as anatomical landmarks, was cut coronally (400 μm thick). The slice was placed on a nylon mesh in a recording chamber (volume: 0.5 ml) where it was superfused by oxygenated aCSF (34.0±0.5° C.) at a rate of 2 to 3 ml/min. The LC was recognized as a translucent region during transillumination, lateral to the fourth ventricle. All experiments were performed in oxygenated aCSF with synaptic blockers consisting of 10 μM CNQX, 10 μM SR95531, 1 μM MK801, and 1 μM CGP55845, which block AMPA/Kainate, GABAA, NMDA, and GABAB receptors, respectively. This ensured that the spontaneous firing of the neurons was only due to its endogenous pace making.
Extracellular single cell recordings of LC neurons were performed with glass microelectrodes filled with aCSF (resistance 10-20 MΩ). Signals were passed through an impedance adapter and were amplified 1000× using a home-made amplifier. […] Data were collected and analysed with the Spike 2 software (Cambridge Electronic Design). […] The duration of the extracellularly recorded action potentials was 2-3 ms. Drugs and peptides were applied for at least 10 minutes.
The mean firing rate over 1 minute was calculated during each condition. Next, the inhibition of firing by the peptides and drugs used (LIH383 and dynorphin) was quantified as the % of total inhibition. For this purpose, present inventors considered the mean firing rate during the last minute of each condition (control, LIH383 alone, LIH383 plus a given concentration of dynorphin).

Compound | pEC50 [1] | further results
FGGWMRRF (peptide 47) [SEQ ID NO: 72] | 7.72 | 
dynorphin 2-13: endogenous truncated dynorphin variant [reference compound] |  | β-arrestin recruitment to ACKR3: agonist activity/potency in words ([2]; U87 cells): activated
FGGWMRRKR (peptide 6) [SEQ ID NO: 11] | 8.13 | 
FGGFMRRVR (peptide 3) [SEQ ID NO: 5] | 8.40 | 
FGGFMRRF (peptide 44) [SEQ ID NO: 69] | 7.96 | 
FGGFMRRFR (peptide 45) [SEQ ID NO: 70] | 7.79 | 
FGGWMRRFR (peptide 46) [SEQ ID NO: 71] | 7.72 | 
dynorphin 2-17: endogenous truncated dynorphin variant (GGFLRRIRPKLKWDNQ; listed as Homo sapiens) [reference compound] |  | β-arrestin recruitment to ACKR3: agonist activity/potency in words ([2]; U87 cells): activated
FGGFMRRKR (peptide 2) [SEQ ID NO: 4] | 8.95 | 
FGGWMRRK (peptide 4) [SEQ ID NO: 6] | 8.39 | 
CXCL11: C—X—C motif chemokine 11, endogenous ACKR3 chemokine ligand |  | pEC50 ([2]; U87 cells, read-out: EC50 in inducing β-arrestin recruitment to ACKR3): 8.66
YGGFMRRV* (adrenorphin) [compound 32] | 6.96 | 
CXCL10: irrelevant (negative control) chemokine |  | reversal of the ACKR3-mediated impairment of dynorphin A potency to activate KOR by pre-treatment ([3]; pre-treatment of ACKR3-expressing cells, saturating concentration): not
C=CCN1CC[C@]23c4c5ccc(O)c4O[C@H]2C(=O)CC[C@@]3(O)[C@H]1C5 [naloxone] |  | effect of dynorphin A (1 μM) on neuronal firing rate after naloxone pretreatment [4]: did not lead to a change in neuronal firing rate
FGGWMRRV (peptide 43) [SEQ ID NO: 68] | 7.98 | 
FGGWMRRVR (peptide 5) [SEQ ID NO: 10] | 8.27 | 
CC[C@H](C)[C@H](NC(=O)[C@H](CCCNC(=N)N)NC(=O)[C@H](CCCNC(=N)N)NC(=O)[C@H](CC(C)C)NC(=O)[C@H](Cc1ccccc1)NC(=O)CNC(=O)CNC(=O)[C@@H](N)Cc1ccc(O)cc1)C(=O)N[C@@H](CCCNC(=N)N)C(=O)N1CCC[C@H]1C(=O)N[C@@H](CCCCN)C(=O)N[C@@H](CC(C)C)C(=O)N[C@@H](CCCCN)C(=O)N[C@@H](Cc1c[nH]c2ccccc12)C(=O)N[C@@H](CC(=O)O)C(=O)N[C@@H](CC(N)=O)C(=O)N[C@@H](CCC(N)=O)C(=O)O [dynorphin A] |  | pEC50 ([4]; LIH383 3 μM group, read-out: EC50 of dynorphin for inhibition of firing, one aberrant individual value that was omitted): 6.25; concentration giving total inhibition of neuron depolarization (neuronal firing) ([4]; explants of rat locus coeruleus): 1 µM; apparent potency to activate KOR in the presence of ACKR3-expressing cells [3]: impaired
Oc1ccc2c3c1O[C@H]1c4[nH]c5c(c4C[C@@]4(O)[C@@H](C2)N(CC2CC2)CC[C@]314)C[C@@]1(O)[C@H]2Cc3ccc(O)c4c3[C@@]1(CCN2CC1CC1)[C@H]5O4 [nor-binaltrophimine, reference compound] |  | activity of opioid modulators towards ACKR3 in β-arrestin recruitment ([2]; 10 μM, 1 μM and 100 nM): Weak activation of ACKR3
FGGFMRRV* (mother peptide) [compound 35] | 8.03 | 

Source: patent US12578343B2, “Selective ACKR3 modulators and uses thereof” (Luxembourg Institute of Health (LIH), priority 2019, dated 2026)
